Measurements reported in ChEMBL document CHEMBL4420075, “Seriniquinones, melanoma-specific anticancer agents” (2016).

Tests used:
HCT-116 [1] = assay: Cytotoxicity in human HCT116 cells by MTT assay; format: functional, cell-based
PC-3 = assay: Growth inhibition of human PC3 cells assessed as cell growth incubated for 48 hrs by sulforhodamine B assay; format: functional; set-up: concentration or dose not given beside the values
SF-268 = assay: Growth inhibition of human SF268 cells assessed as cell growth incubated for 48 hrs by sulforhodamine B assay; format: functional; set-up: concentration or dose not given beside the values
NCI-H460 = assay: Growth inhibition of human NCI-H460 cells assessed as cell growth incubated for 48 hrs by sulforhodamine B assay; format: functional; set-up: concentration or dose not given beside the values
MOLT-4 = assay: Growth inhibition of human MOLT4 cells assessed as cell growth incubated for 48 hrs by sulforhodamine B assay; format: functional; set-up: concentration or dose not given beside the values
MCF7 = assay: Growth inhibition of human MCF7 cells assessed as cell growth incubated for 48 hrs by sulforhodamine B assay; format: functional; set-up: concentration or dose not given beside the values
M14 = assay: Growth inhibition of human M14 cells assessed as cell growth incubated for 48 hrs by sulforhodamine B assay; format: functional; set-up: concentration or dose not given beside the values
ACHN = assay: Growth inhibition of human ACHN cells assessed as cell growth incubated for 48 hrs by sulforhodamine B assay; format: functional; set-up: scale not given: the % may be the effect or the level left
HL-60(TB) = assay: Growth inhibition of human HL-60(TB) cells assessed as cell growth incubated for 48 hrs by sulforhodamine B assay; format: functional; set-up: concentration or dose not given beside the values
KM12 = assay: Growth inhibition of human KM12 cells assessed as cell growth incubated for 48 hrs by sulforhodamine B assay; format: functional; set-up: concentration or dose not given beside the values
OVCAR-3 = assay: Growth inhibition of human OVCAR3 cells assessed as cell growth incubated for 48 hrs by sulforhodamine B assay; format: functional; set-up: concentration or dose not given beside the values
UACC-62 = assay: Growth inhibition of human UACC62 cells assessed as cell growth incubated for 48 hrs by sulforhodamine B assay; format: functional; set-up: concentration or dose not given beside the values
HCT-116 [2] = assay: Growth inhibition of human HCT116 cells assessed as cell growth incubated for 48 hrs by sulforhodamine B assay; format: functional; set-up: concentration or dose not given beside the values
UO-31 = assay: Growth inhibition of human UO31 cells assessed as cell growth incubated for 48 hrs by sulforhodamine B assay; format: functional; set-up: concentration or dose not given beside the values
SN12C = assay: Growth inhibition of human SN12C cells assessed as cell growth incubated for 48 hrs by sulforhodamine B assay; format: functional; set-up: concentration or dose not given beside the values
SF-539 = assay: Growth inhibition of human SF539 cells assessed as cell growth incubated for 48 hrs by sulforhodamine B assay; format: functional; set-up: scale not given: the % may be the effect or the level left
HT-29 = assay: Growth inhibition of human HT-29 cells assessed as cell growth incubated for 48 hrs by sulforhodamine B assay; format: functional; set-up: concentration or dose not given beside the values
Hs-578T = assay: Growth inhibition of human Hs 578T cells assessed as cell growth incubated for 48 hrs by sulforhodamine B assay; format: functional; set-up: concentration or dose not given beside the values
OVCAR-5 = assay: Growth inhibition of human OVCAR5 cells assessed as cell growth incubated for 48 hrs by sulforhodamine B assay; format: functional; set-up: scale not given: the % may be the effect or the level left
COLO 205 = assay: Growth inhibition of human COLO205 cells assessed as cell growth incubated for 48 hrs by sulforhodamine B assay; format: functional; set-up: concentration or dose not given beside the values
U-251 = assay: Growth inhibition of human U251 cells assessed as cell growth incubated for 48 hrs by sulforhodamine B assay; format: functional; set-up: concentration or dose not given beside the values
NCI/ADR-RES = assay: Growth inhibition of human NCI/ADR-RES cells assessed as cell growth incubated for 48 hrs by sulforhodamine B assay; format: functional; set-up: concentration or dose not given beside the values
SK-OV-3 = assay: Growth inhibition of human SKOV3 cells assessed as cell growth incubated for 48 hrs by sulforhodamine B assay; format: functional; set-up: concentration or dose not given beside the values
HCC 2998 = assay: Growth inhibition of human HCC2998 cells assessed as cell growth incubated for 48 hrs by sulforhodamine B assay; format: functional; set-up: concentration or dose not given beside the values
SR = assay: Growth inhibition of human SR cells assessed as cell growth incubated for 48 hrs by sulforhodamine B assay; format: functional; set-up: concentration or dose not given beside the values
SK-MEL-28 = assay: Growth inhibition of human SK-MEL-28 cells assessed as cell growth incubated for 48 hrs by sulforhodamine B assay; format: functional; set-up: concentration or dose not given beside the values
UACC-257 = assay: Growth inhibition of human UACC257 cells assessed as cell growth incubated for 48 hrs by sulforhodamine B assay; format: functional; set-up: concentration or dose not given beside the values
HOP-92 = assay: Growth inhibition of human HOP92 cells assessed as cell growth incubated for 48 hrs by sulforhodamine B assay; format: functional; set-up: concentration or dose not given beside the values
MDA-MB-435 = assay: Growth inhibition of human MDA-MB-435 cells assessed as cell growth incubated for 48 hrs by sulforhodamine B assay; format: functional; set-up: concentration or dose not given beside the values
MDA-MB-468 = assay: Growth inhibition of human MDA-MB-468 cells assessed as cell growth incubated for 48 hrs by sulforhodamine B assay; format: functional; set-up: concentration or dose not given beside the values
T47D = assay: Growth inhibition of human T47D cells assessed as cell growth incubated for 48 hrs by sulforhodamine B assay; format: functional; set-up: concentration or dose not given beside the values
LOX IMVI = assay: Growth inhibition of human LOXIMVI cells assessed as cell growth incubated for 48 hrs by sulforhodamine B assay; format: functional; set-up: concentration or dose not given beside the values
A498 = assay: Growth inhibition of human A498 cells assessed as cell growth incubated for 48 hrs by sulforhodamine B assay; format: functional; set-up: concentration or dose not given beside the values
OVCAR-8 = assay: Growth inhibition of human OVCAR8 cells assessed as cell growth incubated for 48 hrs by sulforhodamine B assay; format: functional; set-up: concentration or dose not given beside the values
SW-620 = assay: Growth inhibition of human SW620 cells assessed as cell growth incubated for 48 hrs by sulforhodamine B assay; format: functional; set-up: concentration or dose not given beside the values
786-0 = assay: Growth inhibition of human 786-0 cells assessed as cell growth incubated for 48 hrs by sulforhodamine B assay; format: functional; set-up: concentration or dose not given beside the values
NCI-H226 = assay: Growth inhibition of human NCI-H226 cells assessed as cell growth incubated for 48 hrs by sulforhodamine B assay; format: functional; set-up: concentration or dose not given beside the values
HCT-15 = assay: Growth inhibition of human HCT15 cells assessed as cell growth incubated for 48 hrs by sulforhodamine B assay; format: functional; set-up: scale not given: the % may be the effect or the level left
RPMI-8226 = assay: Growth inhibition of human RPMI8226 cells assessed as cell growth incubated for 48 hrs by sulforhodamine B assay; format: functional; set-up: concentration or dose not given beside the values
A549 = assay: Growth inhibition of human A549/ATCC cells assessed as cell growth incubated for 48 hrs by sulforhodamine B assay; format: functional; set-up: concentration or dose not given beside the values
SNB-75 = assay: Growth inhibition of human SNB75 cells assessed as cell growth incubated for 48 hrs by sulforhodamine B assay; format: functional; set-up: concentration or dose not given beside the values
OVCAR-4 = assay: Growth inhibition of human OVCAR4 cells assessed as cell growth incubated for 48 hrs by sulforhodamine B assay; format: functional; set-up: concentration or dose not given beside the values
CCRF-CEM = assay: Growth inhibition of human CCRF-CEM cells assessed as cell growth incubated for 48 hrs by sulforhodamine B assay; format: functional; set-up: concentration or dose not given beside the values
NCI-H522 = assay: Growth inhibition of human NCI-H522 cells assessed as cell growth incubated for 48 hrs by sulforhodamine B assay; format: functional; set-up: concentration or dose not given beside the values
SK-MEL-2 = assay: Growth inhibition of human SK-MEL-2 cells assessed as cell growth incubated for 48 hrs by sulforhodamine B assay; format: functional; set-up: concentration or dose not given beside the values
SK-MEL-5 = assay: Growth inhibition of human SK-MEL-5 cells assessed as cell growth incubated for 48 hrs by sulforhodamine B assay; format: functional; set-up: concentration or dose not given beside the values
TK-10 = assay: Growth inhibition of human TK10 cells assessed as cell growth incubated for 48 hrs by sulforhodamine B assay; format: functional; set-up: concentration or dose not given beside the values
DU-145 = assay: Growth inhibition of human DU145 cells assessed as cell growth incubated for 48 hrs by sulforhodamine B assay; format: functional; set-up: concentration or dose not given beside the values
CAKI-1 = assay: Growth inhibition of human Caki1 cells assessed as cell growth incubated for 48 hrs by sulforhodamine B assay; format: functional; set-up: concentration or dose not given beside the values
BT-549 = assay: Growth inhibition of human BT549 cells assessed as cell growth incubated for 48 hrs by sulforhodamine B assay; format: functional; set-up: concentration or dose not given beside the values
NCI-H322M = assay: Growth inhibition of human NCI-H322M cells assessed as cell growth incubated for 48 hrs by sulforhodamine B assay; format: functional; set-up: scale not given: the % may be the effect or the level left
Malme-3M = assay: Growth inhibition of human MALME-3M cells assessed as cell growth incubated for 48 hrs by sulforhodamine B assay; format: functional; set-up: scale not given: the % may be the effect or the level left
SNB-19 = assay: Growth inhibition of human SNB19 cells assessed as cell growth incubated for 48 hrs by sulforhodamine B assay; format: functional; set-up: concentration or dose not given beside the values
K562 = assay: Growth inhibition of human K562 cells assessed as cell growth incubated for 48 hrs by sulforhodamine B assay; format: functional; set-up: concentration or dose not given beside the values
HOP-62 = assay: Growth inhibition of human HOP62 cells assessed as cell growth incubated for 48 hrs by sulforhodamine B assay; format: functional; set-up: concentration or dose not given beside the values
RXF 393 = assay: Growth inhibition of human RXF393 cells assessed as cell growth incubated for 48 hrs by sulforhodamine B assay; format: functional; set-up: concentration or dose not given beside the values
NCI-H23 = assay: Growth inhibition of human NCI-H23 cells assessed as cell growth incubated for 48 hrs by sulforhodamine B assay; format: functional; set-up: concentration or dose not given beside the values
SF-295 = assay: Growth inhibition of human SF295 cells assessed as cell growth incubated for 48 hrs by sulforhodamine B assay; format: functional; set-up: concentration or dose not given beside the values
MDA-MB-231 = assay: Growth inhibition of human MDA-MB-231 cells assessed as cell growth incubated for 48 hrs by sulforhodamine B assay; format: functional; set-up: concentration or dose not given beside the values

Compound: CC(=O)Oc1ccc2c(=O)c3sc4c(=O)c5cc(O)ccc5c(=O)c4c3c(=O)c2c1
- IC50 (HCT-116 [1]): 3.5 µM

Compound: NCC1CN(C(=O)CCc2ccc3c(=O)c4sc5c(=O)c6ccccc6c(=O)c5c4c(=O)c3c2)C1.O=C(O)C(F)(F)F
- Activity (PC-3): -79.46%
- Activity (SF-268): -57.54%
- Activity (NCI-H460): -52.32%
- Activity (MOLT-4): -36.2%
- Activity (MCF7): -58.78%
- Activity (M14): -93.82%
- Activity (ACHN): -96.22%
- Activity (HL-60(TB)): -46.78%
- Activity (KM12): -76.76%
- Activity (OVCAR-3): -68.52%
- Activity (UACC-62): -88.01%
- Activity (HCT-116 [2]): -80.84%
- Activity (UO-31): -96.98%
- Activity (SN12C): -69%
- Activity (SF-539): -99.46%
- Activity (HT-29): -46.19%
- Activity (Hs-578T): 1.09%
- Activity (OVCAR-5): -85.63%
- Activity (COLO 205): -91.79%
- Activity (U-251): -92.83%
- Activity (NCI/ADR-RES): -15.35%
- Activity (SK-OV-3): -97.49%
- Activity (HCC 2998): -90.76%
- Activity (SR): -25%
- Activity (SK-MEL-28): -96.8%
- Activity (UACC-257): -92.08%
- Activity (HOP-92): -32.93%
- Activity (MDA-MB-435): -93.07%
- Activity (MDA-MB-468): -83.65%
- Activity (T47D): -51.1%
- Activity (LOX IMVI): -82.6%
- Activity (A498): -87.3%
- Activity (OVCAR-8): -38.88%
- Activity (SW-620): -60.32%
- Activity (786-0): -95.07%
- Activity (NCI-H226): -49.62%
- Activity (HCT-15): -61.54%
- Activity (RPMI-8226): -39.84%
- Activity (A549): -55.33%
- Activity (SNB-75): -95.74%
- Activity (OVCAR-4): -71.07%
- Activity (CCRF-CEM): -29.57%
- Activity (NCI-H522): -72.26%
- Activity (SK-MEL-2): -72.32%
- Activity (SK-MEL-5): -98.07%
- Activity (TK-10): -89.49%
- Activity (DU-145): -94.41%
- Activity (CAKI-1): -78.75%
- Activity (BT-549): -96.67%
- Activity (NCI-H322M): -97.48%
- Activity (Malme-3M): -93.22%
- Activity (SNB-19): -98.59%
- Activity (K562): -59.88%
- Activity (HOP-62): -90.94%
- Activity (RXF 393): -77.25%
- Activity (NCI-H23): -50.82%
- Activity (SF-295): -92.59%
- Activity (MDA-MB-231): -15.99%

Compound: CC(=O)Oc1ccc2c(=O)c3c(sc4c(=O)c5ccc(O)cc5c(=O)c43)c(=O)c2c1
- IC50 (HCT-116 [1]): 1.8 µM

Compound: CC(=O)Oc1ccc2c(=O)c3c(sc4c(=O)c5cc(O)ccc5c(=O)c43)c(=O)c2c1
- IC50 (HCT-116 [1]): 1.6 µM
